Measured values reported in ChEMBL document CHEMBL1147682, “New 4-(4-methyl-phenyl)phthalazin-1(2H)-one derivatives and their effects on alpha1-receptors” (Bioorg Med Chem Lett, 2006).

What was measured:
Assay type in all cases: tissue-based
[1] = target: T1, Serotonin 1a (5-HT1a) receptor/Adrenergic receptor alpha-1 (Rattus norvegicus) (UniProt P15823+P23944+P43140+P19327); assay: Selectivity for alpha-1 adrenergic receptor over 5HT1A serotonergic receptor in rat cerebral cortex
[2] = target: T2, 5-hydroxytryptamine receptor 1A (Rattus norvegicus, UniProt P19327); assay: Displacement of [3H]8-OH-DPAT from 5HT1A serotonergic receptor in rat cerebral cortex
T2 sequence (P19327 whole entry): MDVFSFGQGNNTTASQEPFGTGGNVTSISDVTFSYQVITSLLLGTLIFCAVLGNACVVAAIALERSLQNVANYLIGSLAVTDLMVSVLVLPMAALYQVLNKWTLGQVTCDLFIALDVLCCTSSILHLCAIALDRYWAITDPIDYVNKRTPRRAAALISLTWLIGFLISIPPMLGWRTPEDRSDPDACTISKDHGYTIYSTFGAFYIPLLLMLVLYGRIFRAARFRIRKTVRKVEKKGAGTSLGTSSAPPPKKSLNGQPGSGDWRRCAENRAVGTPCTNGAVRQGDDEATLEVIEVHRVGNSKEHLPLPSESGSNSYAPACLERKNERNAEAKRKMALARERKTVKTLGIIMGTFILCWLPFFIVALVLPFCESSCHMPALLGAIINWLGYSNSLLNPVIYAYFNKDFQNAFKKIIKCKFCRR

[3] = target: T3, Adrenergic receptor alpha-1 (Rattus norvegicus, UniProt P15823+P23944+P43140); assay: Displacement of [3H]prazosin from alpha-1 adrenergic receptor in rat cerebral cortex
T3 sequence (P15823 whole entry): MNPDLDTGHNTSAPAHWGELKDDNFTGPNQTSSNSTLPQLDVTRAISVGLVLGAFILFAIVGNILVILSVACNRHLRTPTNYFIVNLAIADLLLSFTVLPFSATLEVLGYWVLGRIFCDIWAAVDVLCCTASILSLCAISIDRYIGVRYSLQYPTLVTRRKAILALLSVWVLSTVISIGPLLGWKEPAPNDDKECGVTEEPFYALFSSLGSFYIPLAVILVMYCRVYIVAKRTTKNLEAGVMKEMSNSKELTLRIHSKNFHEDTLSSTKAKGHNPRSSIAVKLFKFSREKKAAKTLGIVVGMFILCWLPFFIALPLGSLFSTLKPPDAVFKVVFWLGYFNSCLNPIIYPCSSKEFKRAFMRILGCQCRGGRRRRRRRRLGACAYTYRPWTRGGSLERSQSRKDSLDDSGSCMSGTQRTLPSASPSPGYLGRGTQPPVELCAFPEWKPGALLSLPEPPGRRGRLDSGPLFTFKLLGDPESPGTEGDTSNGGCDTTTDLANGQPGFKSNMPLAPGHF
T3 sequence (P23944 whole entry): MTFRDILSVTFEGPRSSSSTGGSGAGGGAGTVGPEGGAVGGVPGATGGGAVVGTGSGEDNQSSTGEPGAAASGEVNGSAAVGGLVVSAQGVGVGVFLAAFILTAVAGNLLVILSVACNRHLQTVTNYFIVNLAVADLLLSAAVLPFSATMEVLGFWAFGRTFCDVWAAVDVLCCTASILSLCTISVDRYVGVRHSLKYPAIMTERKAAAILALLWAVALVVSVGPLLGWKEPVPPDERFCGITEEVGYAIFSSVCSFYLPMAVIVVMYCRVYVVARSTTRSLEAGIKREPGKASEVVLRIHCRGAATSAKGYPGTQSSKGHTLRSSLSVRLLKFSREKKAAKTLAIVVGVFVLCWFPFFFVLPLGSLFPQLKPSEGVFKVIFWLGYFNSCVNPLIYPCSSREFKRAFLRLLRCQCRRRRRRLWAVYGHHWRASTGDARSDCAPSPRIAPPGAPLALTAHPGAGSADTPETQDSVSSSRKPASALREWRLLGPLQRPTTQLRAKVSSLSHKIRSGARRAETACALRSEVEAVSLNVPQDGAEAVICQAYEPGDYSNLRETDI
T3 sequence (P43140 whole entry): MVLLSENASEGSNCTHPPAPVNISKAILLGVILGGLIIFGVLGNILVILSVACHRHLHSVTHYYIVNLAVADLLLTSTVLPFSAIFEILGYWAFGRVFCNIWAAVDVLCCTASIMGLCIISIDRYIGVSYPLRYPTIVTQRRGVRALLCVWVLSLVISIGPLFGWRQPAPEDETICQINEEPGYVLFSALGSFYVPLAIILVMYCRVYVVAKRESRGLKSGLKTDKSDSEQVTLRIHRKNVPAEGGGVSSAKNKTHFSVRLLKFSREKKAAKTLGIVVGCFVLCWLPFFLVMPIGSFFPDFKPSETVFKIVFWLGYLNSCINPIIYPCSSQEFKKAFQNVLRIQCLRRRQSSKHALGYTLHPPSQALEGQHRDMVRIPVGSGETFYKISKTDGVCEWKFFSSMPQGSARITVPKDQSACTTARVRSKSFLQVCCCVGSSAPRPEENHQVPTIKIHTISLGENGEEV

[4] = target: T4, Adrenergic receptor alpha-2 (Rattus norvegicus, UniProt P22086+P19328+P22909); assay: Displacement of [3H]rauwolscine from alpha-2 adrenergic receptor in rat cerebral cortex
T4 sequence (P22086 whole entry): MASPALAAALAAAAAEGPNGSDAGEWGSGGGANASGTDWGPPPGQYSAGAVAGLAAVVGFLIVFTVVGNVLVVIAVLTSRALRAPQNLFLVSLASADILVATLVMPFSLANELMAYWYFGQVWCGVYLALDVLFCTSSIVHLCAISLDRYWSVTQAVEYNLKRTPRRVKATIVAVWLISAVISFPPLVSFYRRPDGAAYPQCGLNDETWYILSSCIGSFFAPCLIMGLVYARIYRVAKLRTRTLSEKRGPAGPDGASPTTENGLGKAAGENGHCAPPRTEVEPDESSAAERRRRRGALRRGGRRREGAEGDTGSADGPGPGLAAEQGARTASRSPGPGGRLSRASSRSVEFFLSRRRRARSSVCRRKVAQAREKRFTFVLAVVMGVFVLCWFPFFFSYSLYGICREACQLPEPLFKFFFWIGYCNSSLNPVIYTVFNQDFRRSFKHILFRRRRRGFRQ
T4 sequence (P19328 whole entry): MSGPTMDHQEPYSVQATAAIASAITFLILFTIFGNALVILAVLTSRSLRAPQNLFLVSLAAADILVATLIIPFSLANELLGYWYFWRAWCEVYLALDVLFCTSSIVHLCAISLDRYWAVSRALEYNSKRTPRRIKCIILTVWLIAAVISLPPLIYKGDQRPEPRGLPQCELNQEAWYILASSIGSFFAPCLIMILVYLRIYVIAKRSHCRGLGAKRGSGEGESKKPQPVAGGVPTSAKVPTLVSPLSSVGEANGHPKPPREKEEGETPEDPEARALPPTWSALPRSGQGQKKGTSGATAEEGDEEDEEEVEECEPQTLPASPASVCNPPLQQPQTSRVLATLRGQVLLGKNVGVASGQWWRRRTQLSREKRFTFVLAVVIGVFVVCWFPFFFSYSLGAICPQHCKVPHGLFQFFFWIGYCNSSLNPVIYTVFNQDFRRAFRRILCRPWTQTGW
T4 sequence (P22909 whole entry): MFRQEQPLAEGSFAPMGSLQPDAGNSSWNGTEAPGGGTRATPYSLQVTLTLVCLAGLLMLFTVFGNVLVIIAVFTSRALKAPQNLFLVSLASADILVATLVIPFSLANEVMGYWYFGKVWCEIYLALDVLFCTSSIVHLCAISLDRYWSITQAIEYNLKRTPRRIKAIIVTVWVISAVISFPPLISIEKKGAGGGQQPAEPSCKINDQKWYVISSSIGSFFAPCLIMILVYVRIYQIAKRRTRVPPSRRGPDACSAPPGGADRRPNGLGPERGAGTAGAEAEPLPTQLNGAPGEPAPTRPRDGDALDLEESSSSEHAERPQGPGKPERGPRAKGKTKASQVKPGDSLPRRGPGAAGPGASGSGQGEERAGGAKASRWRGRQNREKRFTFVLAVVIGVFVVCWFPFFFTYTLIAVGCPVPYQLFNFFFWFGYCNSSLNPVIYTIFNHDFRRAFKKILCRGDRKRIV

[5] = target: T1, Serotonin 1a (5-HT1a) receptor/Adrenergic receptor alpha-1 (Rattus norvegicus); assay: Selectivity for 5HT1A serotonergic receptor over alpha1 adrenergic receptor in rat cerebral cortex
[6] = target: Adrenergic receptor alpha-1 (Rattus norvegicus) (UniProt P15823+P23944+P43140); assay: Displacement of [3H]prazosin from alpha-1 adrenergic receptor in rat cerebral cortex at 10 uM
[7] = target: T5, 5-hydroxytryptamine receptor 1A (Rattus norvegicus) (UniProt P19327); assay: Displacement of [3H]8-OH-DPAT from 5HT1A serotonergic receptor in rat cerebral cortex at 10 uM
T5 sequence (whole entry): T2 sequence (P19327 whole entry)

[8] = target: Adrenergic receptor alpha-2 (Rattus norvegicus) (UniProt P22086+P19328+P22909); assay: Displacement of [3H]rauwolscine from alpha-2 adrenergic receptor in rat cerebral cortex at 10 uM

SMILES | Ratio Ki [1] | Ki [2] | Ki [3] | Ki [4] | Ratio Ki [5] | inhibition [6] | inhibition [7] | inhibition [8]
CCOc1ccccc1N1CCN(CCn2nc(-c3ccc(C)cc3)c3ccccc3c2=O)CC1 | 244 | 0.951 µM | 0.0039 µM | 0.867 µM |  |  |  | 
Cc1ccc(-c2nn(CCCCCCCN3CCN(c4cccc(Cl)c4)CC3)c(=O)c3ccccc23)cc1 | 18.2 | 0.673 µM | 0.037 µM | 0.43 µM |  |  |  | 
Cc1ccc(-c2nn(CCN3CCN(c4ccccc4)CC3)c(=O)c3ccccc23)cc1 | 245 | 6.2 µM | 0.0253 µM | 4.262 µM |  |  |  | 
COc1ccccc1N1CCN(CCCCCCCn2nc(-c3ccc(C)cc3)c3ccccc3c2=O)CC1 | 12 | 0.101 µM | 0.0084 µM | 0.105 µM |  |  |  | 
Cc1ccc(-c2nn(CCCCN3CCN(c4ccccc4OC(C)C)CC3)c(=O)c3ccccc23)cc1 | 75.7 | 0.081 µM | 0.00107 µM | 0.096 µM |  |  |  | 
CCOc1ccccc1N1CCN(CCCCCCCn2nc(-c3ccc(C)cc3)c3ccccc3c2=O)CC1 | 28.2 | 0.207 µM | 0.00733 µM | 0.889 µM |  |  |  | 
Cc1ccc(-c2nn(CCCCN3CCN(c4ccccc4)CC3)c(=O)c3ccccc23)cc1 | 18.8 | 0.45 µM | 0.0239 µM | 0.186 µM |  |  |  | 
Cc1ccc(-c2nn(CCN3CCN(c4ccccc4OC(C)C)CC3)c(=O)c3ccccc23)cc1 | 258 | 1.29 µM | 0.005 µM | 1.301 µM |  |  |  | 
Cc1ccc(-c2nn(CCCCN3CCN(c4cccc(Cl)c4)CC3)c(=O)c3ccccc23)cc1 | 9.3 | 0.116 µM | 0.0124 µM | 0.1782 µM |  |  |  | 
Cc1ccc(-c2nn(CCCCN3CCN(c4ncccn4)CC3)c(=O)c3ccccc23)cc1 | 4.4 | 1.18 µM | 0.27 µM | 2.034 µM |  |  |  | 
CCOc1ccccc1N1CCN(CCCCn2nc(-c3ccc(C)cc3)c3ccccc3c2=O)CC1 | 18.3 | 0.041 µM | 0.00223 µM | 0.06047 µM |  |  |  | 
COc1ccccc1N1CCN(CCCCn2nc(-c3ccc(C)cc3)c3ccccc3c2=O)CC1 | 14.8 | 0.0385 µM | 0.0026 µM | 0.06037 µM |  |  |  | 
Cc1ccc(-c2nn(CCCCN3CCN(CC4COc5ccccc5O4)CC3)c(=O)c3ccccc23)cc1 (configuration not stated) | 10.7 | 1.93 µM | 0.18 µM | 0.278 µM |  |  |  | 
Cc1ccc(-c2nn(CCCCN3CCN(c4cccc(C(F)(F)F)c4)CC3)c(=O)c3ccccc23)cc1 |  | 0.0718 µM | 0.1116 µM | 0.1865 µM | 1.5 |  |  | 
Cc1ccc(-c2nn(CCCCCCCN3CCN(c4cccc(C(F)(F)F)c4)CC3)c(=O)c3ccccc23)cc1 | 1.9 | 0.722 µM | 0.382 µM | 4.18 µM |  |  |  | 
COc1ccccc1N1CCN(CCn2nc(-c3ccc(C)cc3)c3ccccc3c2=O)CC1 | 135 | 0.473 µM | 0.0035 µM | 0.578 µM |  |  |  | 
Cc1ccc(-c2nn(CCCCCCCn3ncc4ccccc4c3=O)c(=O)c3ccccc23)cc1 |  |  |  |  |  | 26% | 10% | 15%
